How the values were obtained:
pregnant rats = experiment: Implantation in pregnant rats with various compounds under Compound N (Examples 7-10); format: in vivo, rat
Method: a) number of animals with implants/number of animals treated
b) mean implantation sites (based on those with implantation sites)
c) viable fetuses/total number of fetuses (successful pregnancy)
In this experiment, the activity of various compounds encompassed under Compound N are desmonstrated. Groups of 8 - 10 pregnant rats were injected subcutaneously b.i.d. with 0.5 ml. of the medium shown in Example 1 containing the compound and dose identified below. The results are expressed as explained in Example 2.

[1] = system: rats treated with Compound N; experiment: Exogenous estradiol given to Compound N-treated pregnant rats; format: in vivo, rat; details: estradiol 0.1 μg. s.c. in sesame oil on days 4 and 5 of gestation, rats treated with Compound N days 2-6
Method: More specifically, if estradiol is subcutaneously given to rats treated with Compound N (days 2 - 6 of gestation) on days 4 and 5 of gestation at a dose of as little as 0.1 μg. each (dissolved in sesame oil), implantation already takes place in 3 of 8 animals, producing 100% viable embryos.

## CNC(=O)[C@@H]1CCCN1C(=O)[C@H](CCCNC(=N)N)NC(=O)[C@H](CC(C)C)NC(=O)[C@@H](CC(C)C)NC(=O)[C@H](Cc1ccc(O)cc1)NC(=O)[C@H](CO)NC(=O)[C@H](Cc1c[nH]c2ccccc12)NC(=O)[C@H](Cc1c[nH]cn1)NC(=O)[C@@H]1CCC(=O)N1 [Example 10, L-pGlu-L-His-L-Trp-L-Ser-L-Tyr-X-L-Leu-L-Arg-L-Pro-NH-R]
Pregnant rats; Dose 25 μg. s.c. b.i.d.
  a: number of animals with implants/number of animals treated: 0/10
  b: mean implantation sites (based on those with implantation sites): 0
  c: viable fetuses/total number of fetuses (successful pregnancy): 0%

## C[C@]12CC[C@@H]3c4ccc(O)cc4CC[C@H]3[C@@H]1CC[C@@H]2O [estradiol]
[1]
  animals in which implantation takes place: 3 of 8
  viable embryos: 100%

## CCNC(=O)[C@@H]1CCCN1C(=O)[C@H](CCCNC(=N)N)NC(=O)[C@H](CC(C)C)NC(=O)[C@@H](C)NC(=O)[C@H](Cc1ccc(O)cc1)NC(=O)[C@H](CO)NC(=O)[C@H](Cc1c[nH]c2ccccc12)NC(=O)[C@H](Cc1c[nH]cn1)NC(=O)[C@@H]1CCC(=O)N1 [Example 8, L-pGlu-L-His-L-Trp-L-Ser-L-Tyr-X-L-Leu-L-Arg-L-Pro-NH-R]
Pregnant rats; Dose 10 μg. s.c. b.i.d.
  a: number of animals with implants/number of animals treated: 0/10
  b: mean implantation sites (based on those with implantation sites): 0
  c: viable fetuses/total number of fetuses (successful pregnancy): 0%
